The values below come from US20230338463A1, “ICD PEPTIDE AND USE THEREOF FOR HAVING CYTOTOXIC ACTIVITY ON CANCER CELLS” (NATIONAL TSING HUA UNIVERSITY, priority 2022, published 2023).

SMILES strings stand for the structures. Non-standard residues stand in square brackets, D forms with d. Residues, ends and D or L forms follow the SMILES beside them. 2Nal = N[C@@H](Cc1ccc2ccccc2c1)C(=O)O

Experiment [1] deals with MN-11 cells. In words: Luciferin-luciferase extracellular ATP, MN-11. The settings on record: MN-11, 2 × IC50, peak at 0.5-hour. Format: cell-based, murine. The protocol: On the other hand, MN-11 cells were seeded at the density of 25,000 cells/ well in the 96 well plate and allowed to adhere for 24 hours. Cells were treated with Nal-P-113, Bip-P-113 and Dip-P-113 at 2× IC50 for 0.5, 1, 1.5, and 2 hours. Untreated cells served as the control group. After being treated for different time points (0.5, 1, 1.5, and 2 hours), the supernatant of cells was analyzed using the ENLITEN ATP luciferase assay kit (Promega, Madison, WI, USA). The level of the extracellular ATP chemiluminescence was measured at 560 nm using the Wallac VICTOR 3 Multilabel plate reader (PerkinElmer, Shelton, CT, USA).
ATP release from MN-11 cells were measured using the luciferin-luciferase assay after peptide (2 × IC50) treatment (FIGS. 6B-6D). Nal-P-113 and Dip-P-113 reached the relative light unit (~ 11,000 RLU) peak at 0.5-hour, and Bip-P-113 reached the highest peak at 1 hour (~ 13,000 RLU).

The subject of experiment [2] is PC 9 cells. In words: Extracellular HMGB1 Western blot, PC 9. In kind it is cell-based, human. The protocol: HMGB 1 is a chromatin-binding protein and plays an important role as an indicator in the peptide induced immunogenic cell death. In one embodiment, the PC 9 cells were seeded at the density of 2 × 10^4 cells/well under the culture condition in 6-well plate as mentioned earlier in the cell viability determination and left to adhere for 48 hrs. The cells were treated with 56.22 µM of SEQ ID NO:3, 128.38 µM of SEQ ID NO:4 and 142.9 µM of SEQ ID NO: 5 peptides which is the two-fold IC50 concentration for 1 hour (FIG. 4A), 2 hour (FIG. 4B), 4 hour (FIG. 4C) under the incubation condition of humidified 5% CO2 and 37° C. The ICD peptides used were dissolved thoroughly in the serum-free medium (RPMI 1640) before treating the cells.
After the treatment of ICD peptides, the supernatant and lysate of the cells were collected separately for the further experiment. The supernatant was centrifuged at the speed of 1,500 RCF while the cell lysate was undergoing the centrifugation at 14,000 rpm for 5 minutes under the temperature of 4° C. Then, the pellet collected from the supernatant and supernatant of centrifuged cell lysate were discarded. The harvested pellet of cell lysate was washed twice using 200 µL PBS each time preliminarily the sonication of the pellet using bio-disruptor. The disrupted pellet was centrifuged again for 10 minutes under 14,000 rpm and 4° C.
The concentration of the samples was quantified using the commercially available protein quantification assay such as Bradford assay to make sure the amount of the protein was equally loaded in each of the well for SDS-PAGE gel.
The transfer process from polyacrylamide gel to PVDF membrane was performing for 75 minutes under 30 V and 400 mA as well as semi-dry condition. PBST buffer was used to wash the PVDF membrane three times after the transfer process.
The anti-HMGB1 antibody (Abcam, Cambridge, UK, ab18256) will be the primary antibody and incubated overnight at 4° C. in the dilution ratio of 1: 1000. […]
A general note: Immunoblotting shows a protein as a band on a membrane.

Experiment [3] relates to MN-11 cells (murine fibrosarcoma). Format: cell-based. An excerpt:
Medium with PBS solution was used as control group.
Besides, MTT assay was used to test the cell viability of the murine fibrosarcoma MN-11 cell line. Among the peptides, Dip-P-113 had the lowest cytotoxicity against MN-11 cells (FIG. 1F).

Experiment [4] concerns MN-11 cells. Description: Extracellular cytochrome c ELISA, MN-11. In kind it is cell-based, murine. Here is the method: The cells were treated with 2× IC50 Nal-P-113 (FIG. 8A), Bip-P-113 (FIG. 8B), and Dip-P-113 (FIG. 8C) for 0.5, 1, 1.5, 2, and 4 h, respectively. Untreated cells were used as a control. Results are presented as mean ± SD of three independent experiments. **P<0.01; ***P<0.001 compared with control.
Not only that the amount of supernatant cytochrome c release from MN-11 cells was measured by ELISA assay to reveal peptide induced mitochondrial DAMPs. Five time points (0.5, 1, 1.5, 2 and 4 hours) were used to quantify the amount of cytochrome c released and the results were shown in FIGS. 8A-8C. Nal-P-113 (FIG. 8A) and Dip-P-113 (FIG. 8C) induced a relatively high amount of cytochrome c compared to Bip-P-113 (FIG. 8B). In the Nal-P-113 (FIG. 8A) treated group, the amount of cytochrome c release has come to a maximal value of nearly 25 ng/mL at 2 hours while the minimum value of 10 ng/mL at 30 minutes has been observed. The highest amounts of cytochrome c detected in the supernatant for Dip-P-113 (FIG. 8C) was around 35 ng/mL at 4 hours and the lower amount around 18 ng/mL at 30 minutes.

Experiment [5] relates to PC 9 cells. In words: Extracellular cytochrome c ELISA, PC 9. The settings on record: PC 9, 2-fold IC50, time not stated. Format: cell-based, human. The protocol:
The cytochrome c release was a part of mitochondrial damage-associated molecular patterns, therefore the amount of cytochrome c released into supernatant were measured by cytochrome c ELISA assay.
The cells were washed three times using PBS solution to remove all serum components and 1× 10^6 cells/ mL was solubilised in ice-cold 0.5% Triton-X 100-PBS solution at 2-8° C. for 10 minutes. Then, the speed of 16,000 xg was applied to centrifuge the extract for another 10 minutes, and serially dilute the aliquot of supernatant collected with Calibrator Diluent RD5-18 as described in the manufacturer’s protocol.
Quantifying the volume of cytochrome c released and the results were presented in FIGS. 7A-7C via ELISA assay for 0.5, 1, 1.5, and 2 hours. SEQ ID NO:4 group induced a relatively high amount of cytochrome c compared to SEQ ID NO:3 group and SEQ ID NO: 5 group. The cytochrome c release for SEQ ID NO:4 group was double the amount of SEQ ID NO:3 group and SEQ ID NO: 5 group. The trend of cytochrome c release in SEQ ID NO:4 and SEQ ID NO:3 treated PC 9 cells were escalating from 30 minutes to 4 hours, in contrast the SEQ ID NO: 5 group has fluctuating trend. […] The highest amount of cytochrome c detected in the supernatant for SEQ ID NO:3 and SEQ ID NO: 5 were around 3.5 ng/mL and lower than 2 ng/mL for the least.
Background: An ELISA detects its analyte on a solid surface through an enzyme-linked reagent.

Broadly, the IC50 is the point on the concentration scale where inhibition reaches its midpoint. `CC(=O)N[C@@H](C)C(=O)N[C@@H](CCCCN)C(=O)N[C@@H](CCCNC(=N)N)C(=O)N[C@@H](Cc1ccc2ccccc2c1)C(=O)N[C@@H](Cc1ccc2ccccc2c1)C(=O)NCC(=O)N[C@@H](Cc1ccc(O)cc1)C(=O)N[C@@H](CCCCN)C(=O)N[C@@H](CCCNC(=N)N)C(=O)N[C@@H](CCCCN)C(=O)N[C@@H](Cc1ccccc1)C(=O)N[C@@H](Cc1ccc2ccccc2c1)C(N)=O` [SEQ ID NO:3, Ac-AKR Nal Nal GYKRKFNal-NH2] (Ac-AKR[2Nal][2Nal]GYKRKF[2Nal]-NH2): the “ATP release, relative light unit peak” value with MN-11 cells [1] is ~ 11,000 RLU. For the same molecule, the HMGB1 in supernatant entry with PC 9 cells [2] (PC 9, 2 × IC50, 1 hour) is “nothing is observed”; with PC 9 cells [2] (PC 9, 2 × IC50, 2 hours), “can be detected”; with PC 9 cells [2] (PC 9, 2 × IC50, 4 hours), “obviously be seen”. The IC50 in experiment [3] was determined as 11.1 ± 1.37 µM. In addition, the “cytochrome c release, minimum / lower amount” value in the experiment on MN-11 cells [4] (MN-11, 2× IC50, at 30 minutes) is reported as 10 ng/mL. For the same molecule, in the experiment on MN-11 cells [4] (MN-11, 2× IC50, at 2 hours), the “cytochrome c release, maximal value” was roughly 25 ng/mL. Further, in the experiment on PC 9 cells [5], the “highest amount of cytochrome c detected in the supernatant” value is given as “around 3.5 ng/mL”.
